Measurements: the supplement of paper PMC10307832

Key:
Assay in all cases: relative viability (nuclei count vs DMSO), 5 days (fraction); higher = more cells survive
XMD13-2 = compound: C1CC1C(=O)NC2=NNC3=C2C=CC(=C3)C4=CC(=CC=C4)C(=O)NC5CC5 [XMD13-2]
Method in brief: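 Vehicle-anchored 1536-well plates of lung cancer cell lines, held overnight at 37 °C, were pinned with five library-drug doses (not always all listed) spaced by √10. No medium change followed over the next 5 days, after which the cells were fixed, permeabilised and Hoechst-stained together and imaged at 4×. Nuclei were counted with MetaXpress, and viability is treated-well nuclei over vehicle-well nuclei, taken as a median across plates. Plates passed with control CV below 25% and at least one doubling.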

ALW-II-49-7 + Pictilisib = compound: Cc1ccc(C(=O)Nc2cccc(C(F)(F)F)c2)cc1Nc1cncc(C(N)=O)c1 [ALW-II-49-7] + CS(=O)(=O)N1CCN(Cc2cc3nc(-c4cccc5[nH]ncc45)nc(N4CCOCC4)c3s2)CC1 [Pictilisib] (partner 1 µM)
Method in brief: (§1)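 Lung cancer cell lines were seeded in 1536-well plates and dosed by pin tool the next day, with either a single drug or a fixed anchor-drug dose combined with five library-drug doses (not always all listed) spaced in √10 steps. Five days later, one step fixed the cells and stained their nuclei (final 0.05% Triton X-100, 1% formaldehyde, 1 ug/ml Hoechst), and nuclei were counted on 4× images. Relative viability is the nuclei count in treated wells divided by the count in vehicle wells, and each value is the median of duplicate plates.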

ALW-II-49-7 + Linsitinib = compound: Cc1ccc(C(=O)Nc2cccc(C(F)(F)F)c2)cc1Nc1cncc(C(N)=O)c1 [ALW-II-49-7] + C[C@]1(O)C[C@@H](c2nc(-c3ccc4ccc(-c5ccccc5)nc4c3)c3c(N)nccn32)C1 [Linsitinib] (partner 1 µM)
Method in brief: as §1

Dasatinib + AZD7762 = compound: Cc1nc(Nc2ncc(C(=O)Nc3c(C)cccc3Cl)s2)cc(N2CCN(CCO)CC2)n1 [Dasatinib] + NC(=O)Nc1cc(-c2cccc(F)c2)sc1C(=O)N[C@H]1CCCNC1 [AZD7762] (partner 0.2 µM)
Method in brief: as §1

NCI-H1734
relative viability (XMD13-2; 0.05 µM): 1.1 | relative viability (XMD13-2; 0.1581 µM): 0.848 | relative viability (XMD13-2; 0.5 µM): 1.03 | relative viability (XMD13-2; 1.581 µM): 0.869 | relative viability (XMD13-2; 5 µM): 0.748 | relative viability (ALW-II-49-7 + Pictilisib; first compound 0.08 µM): 0.491 | relative viability (ALW-II-49-7 + Pictilisib; first compound 0.253 µM): 0.42 | relative viability (ALW-II-49-7 + Pictilisib; first compound 0.8 µM): 0.491 | relative viability (ALW-II-49-7 + Pictilisib; first compound 2.53 µM): 0.48 | relative viability (ALW-II-49-7 + Pictilisib; first compound 8 µM): 0.499 | relative viability (ALW-II-49-7 + Linsitinib; first compound 0.08 µM): 0.927 | relative viability (ALW-II-49-7 + Linsitinib; first compound 0.253 µM): 0.911 | relative viability (ALW-II-49-7 + Linsitinib; first compound 0.8 µM): 0.872 | relative viability (ALW-II-49-7 + Linsitinib; first compound 2.53 µM): 0.815 | relative viability (ALW-II-49-7 + Linsitinib; first compound 8 µM): 0.828 | relative viability (Dasatinib + AZD7762; first compound 0.005 µM): 0.524 | relative viability (Dasatinib + AZD7762; first compound 0.01581 µM): 0.482 | relative viability (Dasatinib + AZD7762; first compound 0.05 µM): 0.482 | relative viability (Dasatinib + AZD7762; first compound 0.1581 µM): 0.406 | relative viability (Dasatinib + AZD7762; first compound 0.5 µM): 0.386

NCI-H1395
relative viability (XMD13-2; 0.05 µM): 1.06 | relative viability (XMD13-2; 0.1581 µM): 0.918 | relative viability (XMD13-2; 0.5 µM): 0.948 | relative viability (XMD13-2; 1.581 µM): 0.852 | relative viability (XMD13-2; 5 µM): 1 | relative viability (ALW-II-49-7 + Pictilisib; first compound 0.08 µM): 0.646 | relative viability (ALW-II-49-7 + Pictilisib; first compound 0.253 µM): 1.05 | relative viability (ALW-II-49-7 + Pictilisib; first compound 0.8 µM): 0.653 | relative viability (ALW-II-49-7 + Pictilisib; first compound 2.53 µM): 0.581 | relative viability (ALW-II-49-7 + Pictilisib; first compound 8 µM): 0.62 | relative viability (ALW-II-49-7 + Linsitinib; first compound 0.08 µM): 1.09 | relative viability (ALW-II-49-7 + Linsitinib; first compound 0.253 µM): 1.22 | relative viability (ALW-II-49-7 + Linsitinib; first compound 0.8 µM): 1.11 | relative viability (ALW-II-49-7 + Linsitinib; first compound 2.53 µM): 0.305 | relative viability (ALW-II-49-7 + Linsitinib; first compound 8 µM): 1.08 | relative viability (Dasatinib + AZD7762; first compound 0.005 µM): 0.401 | relative viability (Dasatinib + AZD7762; first compound 0.01581 µM): 0.39 | relative viability (Dasatinib + AZD7762; first compound 0.05 µM): 0.358 | relative viability (Dasatinib + AZD7762; first compound 0.1581 µM): 0.356 | relative viability (Dasatinib + AZD7762; first compound 0.5 µM): 0.356

HOP-62
relative viability (XMD13-2; 0.05 µM): 1.04 | relative viability (XMD13-2; 0.1581 µM): 0.955 | relative viability (XMD13-2; 0.5 µM): 1.1 | relative viability (XMD13-2; 1.581 µM): 0.953 | relative viability (XMD13-2; 5 µM): 1.02 | relative viability (ALW-II-49-7 + Pictilisib; first compound 0.08 µM): 0.68 | relative viability (ALW-II-49-7 + Pictilisib; first compound 0.253 µM): 0.97 | relative viability (ALW-II-49-7 + Pictilisib; first compound 0.8 µM): 0.857 | relative viability (ALW-II-49-7 + Pictilisib; first compound 2.53 µM): 0.621 | relative viability (ALW-II-49-7 + Pictilisib; first compound 8 µM): 0.491 | relative viability (ALW-II-49-7 + Linsitinib; first compound 0.08 µM): 0.889 | relative viability (ALW-II-49-7 + Linsitinib; first compound 0.253 µM): 1.13 | relative viability (ALW-II-49-7 + Linsitinib; first compound 0.8 µM): 1.03 | relative viability (ALW-II-49-7 + Linsitinib; first compound 2.53 µM): 0.866 | relative viability (ALW-II-49-7 + Linsitinib; first compound 8 µM): 0.813 | relative viability (Dasatinib + AZD7762; first compound 0.005 µM): 0.481 | relative viability (Dasatinib + AZD7762; first compound 0.01581 µM): 0.585 | relative viability (Dasatinib + AZD7762; first compound 0.05 µM): 0.626 | relative viability (Dasatinib + AZD7762; first compound 0.1581 µM): 0.268 | relative viability (Dasatinib + AZD7762; first compound 0.5 µM): 0.167

LK-2
relative viability (XMD13-2; 0.05 µM): 1.24 | relative viability (XMD13-2; 0.1581 µM): 0.904 | relative viability (XMD13-2; 0.5 µM): 1.05 | relative viability (XMD13-2; 1.581 µM): 0.915 | relative viability (XMD13-2; 5 µM): 0.966 | relative viability (ALW-II-49-7 + Pictilisib; first compound 0.08 µM): 0.559 | relative viability (ALW-II-49-7 + Pictilisib; first compound 0.253 µM): 0.648 | relative viability (ALW-II-49-7 + Pictilisib; first compound 0.8 µM): 0.508 | relative viability (ALW-II-49-7 + Pictilisib; first compound 2.53 µM): 0.361 | relative viability (ALW-II-49-7 + Pictilisib; first compound 8 µM): 0.513 | relative viability (ALW-II-49-7 + Linsitinib; first compound 0.08 µM): 0.546 | relative viability (ALW-II-49-7 + Linsitinib; first compound 0.253 µM): 0.722 | relative viability (ALW-II-49-7 + Linsitinib; first compound 0.8 µM): 0.399 | relative viability (ALW-II-49-7 + Linsitinib; first compound 8 µM): 0.654 | relative viability (Dasatinib + AZD7762; first compound 0.005 µM): 0.31 | relative viability (Dasatinib + AZD7762; first compound 0.05 µM): 0.191 | relative viability (Dasatinib + AZD7762; first compound 0.1581 µM): 0.0866 | relative viability (Dasatinib + AZD7762; first compound 0.5 µM): 0.129

NCI-H23
relative viability (XMD13-2; 0.05 µM): 1.04 | relative viability (XMD13-2; 0.1581 µM): 0.907 | relative viability (XMD13-2; 0.5 µM): 1.04 | relative viability (XMD13-2; 1.581 µM): 0.801 | relative viability (XMD13-2; 5 µM): 1.07 | relative viability (ALW-II-49-7 + Pictilisib; first compound 0.08 µM): 0.524 | relative viability (ALW-II-49-7 + Pictilisib; first compound 0.253 µM): 0.448 | relative viability (ALW-II-49-7 + Pictilisib; first compound 0.8 µM): 0.459 | relative viability (ALW-II-49-7 + Pictilisib; first compound 2.53 µM): 0.526 | relative viability (ALW-II-49-7 + Pictilisib; first compound 8 µM): 0.441 | relative viability (ALW-II-49-7 + Linsitinib; first compound 0.08 µM): 0.56 | relative viability (ALW-II-49-7 + Linsitinib; first compound 0.253 µM): 0.55 | relative viability (ALW-II-49-7 + Linsitinib; first compound 0.8 µM): 0.68 | relative viability (ALW-II-49-7 + Linsitinib; first compound 2.53 µM): 0.591 | relative viability (ALW-II-49-7 + Linsitinib; first compound 8 µM): 0.618 | relative viability (Dasatinib + AZD7762; first compound 0.005 µM): 0.321 | relative viability (Dasatinib + AZD7762; first compound 0.01581 µM): 0.24 | relative viability (Dasatinib + AZD7762; first compound 0.05 µM): 0.231 | relative viability (Dasatinib + AZD7762; first compound 0.1581 µM): 0.224 | relative viability (Dasatinib + AZD7762; first compound 0.5 µM): 0.187
